Assay results: PubChem BioAssay (NCI)
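The compound was tested at five concentrations on cells cultured in 96-well plates, with a 48-hour exposure period. Abbreviation: GI50, concentration required for 50% inhibition of growth. TGI: total growth inhibition.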

What was measured:
Experiment in all cases: NCI tumour cell line growth inhibition, 48 h
[1] = tested on: OVCAR-4 ovarian
[2] = tested on: NCI-H460 lung
[3] = tested on: K-562 leukemia
[4] = tested on: HOP-62 NSCLC
[5] = tested on: HCC-2998 colon
[6] = tested on: OVCAR-3 ovarian
[7] = tested on: IGROV1 ovarian
[8] = tested on: U251 CNS
[9] = tested on: TK-10 renal
[10] = tested on: HT29 colon

| Structure (SMILES) | TGI [1] | TGI [2] | TGI [3] | TGI [4] | TGI [5] | TGI [6] | TGI [7] | TGI [8] | TGI [9] | TGI [10] | GI50 [1] | GI50 [2] | GI50 [3] | GI50 [4] | GI50 [5] | GI50 [6] | GI50 [7] | GI50 [8] | GI50 [9] | GI50 [10] |
| --- | --- | --- | --- | --- | --- | --- | --- | --- | --- | --- | --- | --- | --- | --- | --- | --- | --- | --- | --- | --- |
| C1CCC(OCc2nnn3c2CCC3)OC1 (configuration not stated) | > 100 µM | > 100 µM | > 100 µM | > 100 µM | > 100 µM | > 100 µM | > 100 µM | > 100 µM | > 100 µM | > 100 µM |  |  |  |  |  |  |  |  |  |  |
| Cc1ccc(S(=O)(=O)N2c3ccccc3[C@H]3CCc4c([nH]c5ccccc45)[C@H]32)cc1 | > 100 µM | > 100 µM | > 100 µM | > 100 µM | > 100 µM | > 100 µM | > 100 µM | > 100 µM | > 100 µM | > 100 µM |  |  |  |  |  |  |  |  |  |  |
| CC(C)OC(=O)Nc1cccc(Cl)c1 | > 100 µM | > 100 µM | > 100 µM | > 100 µM | > 100 µM | > 100 µM | > 100 µM | > 100 µM | > 100 µM | > 100 µM |  |  |  |  |  |  |  |  |  |  |
| Nc1nc(Cl)cc(NCCCNc2cc(Cl)nc(N)n2)n1 | > 100 µM | > 100 µM | > 100 µM | > 100 µM | > 100 µM | > 100 µM | > 100 µM | > 100 µM | > 100 µM | > 100 µM |  |  |  |  |  |  |  |  |  |  |
| Cn1cc(-c2csc(-c3cn(C)c4ccc(Br)cc34)n2)c2cnccc21 | 3.15 µM | 3.47 µM | 0.563 µM | 3.49 µM | 3.57 µM | 3.49 µM | 3.28 µM | 3.27 µM | 3.22 µM | 3.09 µM | 1.68 µM | 1.87 µM | 0.239 µM | 1.9 µM | 1.9 µM | 1.89 µM | 1.76 µM | 1.78 µM | 1.71 µM | 1.6 µM |
| CS/C(C#N)=C(\C#N)SC | 38.2 µM | 81.4 µM | 48.4 µM | > 100 µM | 20.9 µM | 4.88 µM | 43.8 µM | > 100 µM | 20.7 µM | 64.2 µM |  |  |  |  |  |  |  |  |  |  |
| c1ccc(CSC2(SCc3ccccc3)CCCC2)cc1 | > 10 µM | > 10 µM | > 10 µM | > 10 µM | > 10 µM | > 10 µM | > 10 µM | > 10 µM | > 10 µM | > 10 µM |  |  |  |  |  |  |  |  |  |  |
| CN1C(=O)CN2C(Cl)(Cl)C2(c2ccccc2F)c2cc([N+](=O)[O-])ccc21 (configuration not stated) | > 100 µM | > 100 µM | > 100 µM | > 100 µM | 86 µM | > 100 µM | > 100 µM | > 100 µM | > 100 µM | > 100 µM |  |  |  |  |  |  |  |  |  |  |
| CC(N)C(=O)OCN1C(=O)C2C3C=CC(C2C1=O)C1C2C(=O)N(COC(=O)C(C)N)C(=O)C2C31 (configuration not stated) | 40.9 µM | 34.3 µM | 77 µM | > 100 µM | 97.9 µM | 91.5 µM | > 100 µM | 50.3 µM | > 100 µM | > 100 µM |  |  |  |  |  |  |  |  |  |  |
| Cc1cccc(O)c1-c1nnc(CCCCCCCCc2nnc(-c3c(C)cccc3O)n2N)n1N | > 56.1 µM | > 100 µM | > 100 µM | 62 µM | > 100 µM | > 100 µM | > 100 µM | 67.5 µM | > 59 µM | > 100 µM |  |  |  |  |  |  |  |  |  |  |
| O=c1oc2ccccc2n1P(=O)(n1c(=O)oc2ccccc21)n1c(=O)oc2ccccc21 | > 100 µM | > 100 µM | > 100 µM | > 100 µM | > 100 µM | > 100 µM | > 100 µM | > 100 µM | > 100 µM | > 100 µM |  |  |  |  |  |  |  |  |  |  |
| C[C@H]1C(=O)O[C@@H]1[C@H]1COC(C)(C)O1 | > 100 µM | > 100 µM |  | > 100 µM | > 100 µM | > 100 µM |  | > 100 µM | > 100 µM |  |  |  |  |  |  |  |  |  |  |  |
| NC(=O)c1ccc(NS(=O)(=O)c2ccc(N)cc2)nc1 | > 100 µM | > 100 µM | > 100 µM | > 100 µM | > 100 µM | > 100 µM | > 100 µM | > 100 µM | > 100 µM | > 100 µM |  |  |  |  |  |  |  |  |  |  |
